Test results as given in the supplement of paper PMC10307832.

Experiments:
4EGI-1 + Foretinib = compound: O=C(O)C(Cc1ccccc1[N+](=O)[O-])=NNc1nc(-c2ccc(Cl)c(Cl)c2)cs1 (mixture of isomers) [4EGI-1] + COc1cc2c(Oc3ccc(NC(=O)C4(C(=O)Nc5ccc(F)cc5)CC4)cc3F)ccnc2cc1OCCCN1CCOCC1 [Foretinib] (partner 0.25 µM); assay: relative viability (nuclei count vs DMSO), 5 days (fraction); higher = more cells survive
Method in brief: (§1)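 Cells from lung cancer lines were seeded into 1536-well plates and, one day later, dosed by pin tool. Treatments were either a single drug or a fixed dose of an anchor drug with five library-drug doses (not always all listed) in √10 steps. After 5 days, nuclei were stained in a one-step fixation (final 0.05% Triton X-100, 1% formaldehyde, 1 ug/ml Hoechst) and counted on 4× images, and relative viability is the treated-to-vehicle nuclei ratio, as the median of duplicate plates.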

XMD8-85 + Navitoclax = compound: CN1CCN(CC1)C2=CC(=C(C=C2)NC3=NC=C4C(=N3)N(C5=CC=CC=C5C(=O)N4C)C)OC [XMD8-85] + CC1(C)CCC(c2ccc(Cl)cc2)=C(CN2CCN(c3ccc(C(=O)NS(=O)(=O)c4ccc(N[C@H](CCN5CCOCC5)CSc5ccccc5)c(S(=O)(=O)C(F)(F)F)c4)cc3)CC2)C1 [Navitoclax] (partner 0.5 µM); assay: as above
Method in brief: as §1

| Cell Line | relative viability (4EGI-1 + Foretinib; first compound 0.5 µM) | relative viability (4EGI-1 + Foretinib; first compound 1.581 µM) | relative viability (4EGI-1 + Foretinib; first compound 5 µM) | relative viability (4EGI-1 + Foretinib; first compound 15.81 µM) | relative viability (4EGI-1 + Foretinib; first compound 50 µM) | relative viability (XMD8-85 + Navitoclax; first compound 0.08 µM) | relative viability (XMD8-85 + Navitoclax; first compound 0.253 µM) | relative viability (XMD8-85 + Navitoclax; first compound 0.8 µM) | relative viability (XMD8-85 + Navitoclax; first compound 2.53 µM) | relative viability (XMD8-85 + Navitoclax; first compound 8 µM) |
| --- | --- | --- | --- | --- | --- | --- | --- | --- | --- | --- |
| NCI-H1299 | 1.08 | 1.11 | 1.11 | 1.09 | 1.06 | 1.1 | 1.06 | 1.06 | 1 | 0.804 |
| HCC-15 | 1.07 |  | 1.11 | 0.94 | 0.481 | 0.731 | 0.642 | 0.698 | 0.655 | 0.499 |
| NCI-H1650 | 1.37 |  | 1.04 | 0.749 | 0.405 | 1.15 | 1.32 | 1.29 | 1.16 | 0.439 |
| COR-L23 | 1.08 | 0.728 | 0.98 | 0.736 | 0.29 | 1.24 | 1.06 | 1.02 | 0.871 | 0.629 |
| PC-3 [JPC-3] | 1.09 | 0.984 | 0.967 |  | 0.463 | 0.796 | 0.785 | 0.861 | 0.966 | 0.769 |
| A-427 | 1.16 | 0.944 | 0.983 | 0.867 | 0.646 | 0.993 | 0.995 | 1.03 | 1.03 | 0.95 |
| NCI-H1755 | 0.953 | 0.854 | 0.872 | 0.815 | 0.704 | 1.03 | 1.04 | 0.953 | 0.984 | 0.838 |
| NCI-H2347 | 0.989 | 0.835 | 1.11 | 0.806 | 0.933 | 0.757 | 0.852 |  | 0.809 | 0.63 |
| NCI-H2170 | 0.951 | 0.958 | 0.74 | 1.01 | 0.582 | 0.62 | 0.682 | 0.64 | 0.675 | 0.666 |
| LXF-289 | 0.992 | 0.944 | 1 | 0.943 | 0.771 | 0.831 | 0.867 | 0.951 | 0.974 | 0.811 |
| EBC-1 | 0.0952 | 0.0989 | 0.0859 | 0.0982 | 0.103 | 0.437 | 0.375 | 0.402 | 0.296 | 0.268 |
| NCI-H1666 | 1.01 | 0.924 | 1.04 | 0.671 | 0.417 | 0.932 | 1 | 0.865 | 0.729 | 0.727 |
| HCC-78 | 0.636 |  | 0.547 | 0.416 | 0.525 | 0.891 | 0.882 | 0.6 | 0.682 | 0.58 |
| NCI-H2126 | 1.34 | 1.55 | 1.28 | 1.07 | 0.785 | 0.946 | 0.935 | 0.899 | 0.897 | 0.839 |
| NCI-H1993 | 0.812 | 0.7 | 0.708 | 0.684 | 0.614 | 0.848 |  | 0.885 | 0.968 | 0.766 |
| LOU-NH91 | 0.944 |  | 0.995 | 0.545 | 0.906 | 0.69 | 0.764 | 0.639 | 0.7 | 0.546 |
| NCI-H1437 | 1.25 | 1.12 | 1.24 | 1.04 | 0.521 | 1.16 | 1.16 | 1.13 | 0.979 | 0.591 |
